Experimental data: US7833513B2, “Treatment of Alzheimer's Disease” (Rhode Island Hospital, priority 2004, dated 2010)

What was measured:
[1] = system: phospho-GSK-3β, GSK-3β, phospho-Tau, Tau; assay: ic-STZ ± PPAR agonist: Western blot analysis of GSK-3β and Tau; assay type: in vivo, Long Evans rat; conditions: hypothalamus
Description: On the same day, sub-sets of the ic-STZ group were given a single intra-peritoneal injection of vehicle (saline), or a PPAR-α (GW7647; 25 ug/Kg), PPAR-δ (L-165,041; 2 μg/Kg), or PPAR-γ (F-L-Leu; 20 μg/Kg) activator (CalBiochem, Carlsbad, Calif.). […] In addition, at 4 weeks of age, memory and learning were evaluated using a Morris Water Maze (R. W. Hickey, M. Akino, S. Strausbaugh, G. M. De Courten-Myers. Use of the Morris water maze and acoustic startle chamber to evaluate neurologic injury after asphyxial arrest in rats. Pediatr Res 39(1) (1996), 77-84). The procedures and use of rats in these experiments were approved by the Lifespan-Rhode Island Hospital IACUC committee.
Western Blot Analysis: Western blot analysis was used to assess the levels of Tau, phospho-Tau, GSK-3β, phospho-GSK-3β, and β-actin in temporal lobe tissue (E. J. Rivera, A. Goldin, N. Fulmer, R. Tavares, J. R. Wands, S. M. de la Monte, J. Alzheimers Dis 8(3) (2005), 247-68). Briefly, samples containing 40 μg protein were fractionated by sodium dodecyl sulfate, polyacrylamide gel electrophoresis (SDS-PAGE) (F. Ausubel, R. Brent, R. Kingston, D. Moore, J. Seidman, J. Smnith, et al. Current Protocols in Molecular Biology. (2000)). and transferred to PVDF membranes. Non-specific binding sites were adsorbed with SuperBlock-TBS (Pierce, Rockford, Ill.). Membranes were incubated over night at 4° C. with primary antibody (0.1-1 μg/ml-individually optimized) diluted in Tris-buffered saline (TBS; 50 mM Tris, 150 mM NaCl, pH 7.4) containing 0.5% bovine serum albumin, 0.05% Tween-20, and 0.025% NaN3 (TBST-BSA). Immunoreactivity was detected using horseradish peroxidase (HRP) conjugated IgG (Pierce, Rockford, Ill.) diluted to 1:50,000 in TBST+0.5% cassein, Western Lightning enhanced chemiluminescence reagents (Perkin Elmer Life Sciences Inc., Boston, Mass.), and digital imaging. Immunoreactivity was quantified using the Kodak Digital Science Imaging Station (NEN Life Sciences, Boston, Mass.).
PPAR Agonist Treatment Reduces ic-STZ-Mediated AD-Type Neurodegeneration: In AD, the neuronal cytoskeletal lesions that correlate with dementia, i.e. neurofibrillary tangles, dystrophic neuritis, and neuropil threads, contain insoluble fibrillar structures that are generated in part from hyper-phosphorylated Tau (K. Iqbal, C. Alonso Adel, S. Chen, M. O. Chohan, E. El-Akkad, C. X. Gong, et al. Tau pathology in Alzheimer disease and other tauopathies. Biochim Biophys Acta 1739(2-3) (2005), 198-210). […] J Alzheimers Dis 7(1) (2005), 63-80). […] Therefore, it was of interest to characterize the effects of PPAR agonists on GSK-3β activity and Tau phosphorylation in ic-STZ-treated brains. The levels of phospho-GSK-3β, GSK-3β, phospho-Tau, Tau, and β-actin ([…]) were examined in temporal lobe and hypothalamus homogenates by Western blot analysis. Immunoreactivity was detected and quantified by digital imaging, and the mean levels of protein expression and ratios of phospho-GSK-3β/GSK-3β and phospho-Tau/Tau measured in 4 replicate samples are depicted graphically (FIG. 31). Phospho-GSK-3β immunoreactivity was detected with antibodies directed against the Ser21/9 motif, corresponding to the inactivate form of the kinase.

[2] = system: GFAP, HNE, 8-OHdG, ChAT immunoreactivity; assay: ic-STZ ± PPAR agonist: immunohistochemical staining of brain; assay type: in vivo, Long Evans rat; conditions: for ChAT immunoreactivity: basal forebrain region; for 8-OHdG immunoreactivity / GFAP immunoreactivity / HNE immunoreactivity: temporal cortex
Description: Histopathological and Immunohistochemical Staining Studies: Whole fresh brains were immersion fixed in Histofix (Amresco, Solon, Ohio) and then sectioned in the coronal plane along standardized landmarks, embedded in paraffin, and processed for histopathological studies. In addition, fresh brains were sectioned in the coronal plane to obtain a ˜3 mm thick slice that flanked the infundibulum. The 3-mm brain slice was snap frozen between two slabs of dry ice, and then stored at −80° C. for later RNA and protein studies. The residual tissue was immersion fixed and processed for histopathological studies. […] As negative controls for the immunostaining reactions, either the primary antibody was omitted or non-relevant monoclonal antibody to Hepatitis B virus was used in place of the relevant antibody. Immunoreactivity was detected using the avidin-biotin horseradish peroxidase complex method (S. M. de la Monte, T. Luong, T. R. Neely, D. Robinson, J. R. Wands. Mitochondrial DNA damage as a mechanism of cell loss in Alzheimer's disease. Lab Invest 80(8) (2000), 1323-35). All sections were examined under code.
Increased levels of 8-OHdG and 4-hydroxynonenol (HNE) have been detected in brains with AD (W. R. Markesbery, J. M. Carney. Oxidative alterations in Alzheimer's disease. Brain Pathol 9(1) (1999), 133-46, L. M. Sayre, D. A. Zelasko, P. L. Harris, G. Perry, R. G. Salomon, M. A. Smith. 4-Hydroxynonenal-derived advanced lipid peroxidation end products are increased in Alzheimer's disease. J Neurochem 68(5) (1997), 2092-7). […] In addition, it was of interest to relate indices of oxidative stress to GFAP immunoreactivity, which reflects astrocytic responses to tissue injury. Paraffin-embedded histological sections of brain were immunostained to detect GFAP, 8-OHdG or HNE using the ABC method with DAB as the chromogen (brown precipitate) and light hematoxylin as the counterstain.

## CCCc1c(OCCCOc2ccc(OCC(=O)O)cc2)ccc(C(C)=O)c1O [PPAR-δ agonist, L-165,041]
[1]
  phospho-GSK-3β level: significantly increased
  phospho-Tau level relative to control: moderately reduced
[2]
  ChAT immunoreactivity: variably increased
  8-OHdG immunoreactivity: conspicuously reduced
  GFAP immunoreactivity: conspicuously reduced
  HNE immunoreactivity: conspicuously reduced

## CC(C)(Sc1ccc(CCN(CCCCC2CCCCC2)C(=O)NC2CCCCC2)cc1)C(=O)O [PPAR-α agonist, GW7647]
[1]
  phospho-GSK-3β level: significantly increased
  phospho-Tau level relative to control: significantly higher
  total Tau protein level: slightly higher levels of Tau relative to all other groups
[2]
  ChAT immunoreactivity: variably increased
  8-OHdG immunoreactivity: conspicuously reduced
  GFAP immunoreactivity: no clear effect
  HNE immunoreactivity: no clear effect

## CC(C)C[C@H](NC(=O)OCC1c2ccccc2-c2ccccc21)C(=O)O [PPAR-γ agonist, F-L-Leu]
[1]
  phospho-GSK-3β level: significantly reduced
  phospho-Tau level relative to control: moderately reduced
[2]
  ChAT immunoreactivity: variably increased
  8-OHdG immunoreactivity: conspicuously reduced
  HNE immunoreactivity: moderately reduced

## CN(N=O)C(=O)NC1C(O)OC(CO)C(O)C1O (stereo not shown) [STZ]
[2]
  ChAT immunoreactivity: markedly reduced
